Measurements reported in PubChem BioAssay (NCI).
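Five concentrations, 48 hours, 96-well plates. GI50 = concentration required for 50% inhibition of growth. Definition used: TGI = concentration required for complete inhibition of growth.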

Key:
Test in all cases: NCI anticancer screen, dose series, 48 h; in the data active = GI50 below about 0.43 µM; inactive = the rest
786-0 renal = test system: 786-0 renal
A498 renal = test system: A498 renal
A549 NSCLC = test system: A549 NSCLC
ACHN renal = test system: ACHN renal
BT-549 breast = test system: BT-549 breast
CAKI-1 renal = test system: CAKI-1 renal
CCRF-CEM leukemia = test system: CCRF-CEM leukemia
COLO 205 colon = test system: COLO 205 colon
DU-145 prostate = test system: DU-145 prostate
EKVX NSCLC = test system: EKVX NSCLC
HCC-2998 colon = test system: HCC-2998 colon
HCT-116 colon = test system: HCT-116 colon
HCT-15 colon = test system: HCT-15 colon
HL-60(TB) leukemia = test system: HL-60(TB) leukemia
HOP-62 NSCLC = test system: HOP-62 NSCLC
HOP-92 NSCLC = test system: HOP-92 NSCLC
HS 578T breast = test system: HS 578T breast
HT29 colon = test system: HT29 colon
IGROV1 ovarian = test system: IGROV1 ovarian
K-562 leukemia = test system: K-562 leukemia
KM12 colon = test system: KM12 colon
LOX IMVI melanoma = test system: LOX IMVI melanoma
M14 melanoma = test system: M14 melanoma
MALME-3M melanoma = test system: MALME-3M melanoma
MCF7 breast = test system: MCF7 breast
MDA-MB-231 breast = test system: MDA-MB-231 breast
MDA-MB-435 = test system: MDA-MB-435
MOLT-4 leukemia = test system: MOLT-4 leukemia
NCI-H226 lung = test system: NCI-H226 lung
NCI-H23 lung = test system: NCI-H23 lung
NCI-H460 lung = test system: NCI-H460 lung
NCI-H522 lung = test system: NCI-H522 lung
NCI/ADR-RES ovarian = test system: NCI/ADR-RES ovarian
OVCAR-3 ovarian = test system: OVCAR-3 ovarian
OVCAR-4 ovarian = test system: OVCAR-4 ovarian
OVCAR-5 ovarian = test system: OVCAR-5 ovarian
OVCAR-8 ovarian = test system: OVCAR-8 ovarian
PC-3 prostate = test system: PC-3 prostate
RPMI-8226 leukemia = test system: RPMI-8226 leukemia
RXF 393 renal = test system: RXF 393 renal
SF-268 CNS = test system: SF-268 CNS
SF-295 CNS = test system: SF-295 CNS
SF-539 CNS = test system: SF-539 CNS
SK-MEL-2 melanoma = test system: SK-MEL-2 melanoma
SK-MEL-28 melanoma = test system: SK-MEL-28 melanoma
SK-MEL-5 melanoma = test system: SK-MEL-5 melanoma
SK-OV-3 ovarian = test system: SK-OV-3 ovarian
SN12C renal = test system: SN12C renal
SNB-19 CNS = test system: SNB-19 CNS
SNB-75 CNS = test system: SNB-75 CNS
SR leukemia = test system: SR leukemia
SW-620 colon = test system: SW-620 colon
T-47D breast = test system: T-47D breast
TK-10 renal = test system: TK-10 renal
U251 CNS = test system: U251 CNS
UACC-257 melanoma = test system: UACC-257 melanoma
UACC-62 melanoma = test system: UACC-62 melanoma
UO-31 renal = test system: UO-31 renal

O=Cc1cn(Cc2ccc(Cl)cc2)c2ccccc12
34.9 µM: TGI (SF-295 CNS)
9.09 µM: TGI (UACC-62 melanoma)
> 82.7 µM: TGI (MOLT-4 leukemia)
69.7 µM: TGI (T-47D breast)
44.8 µM: TGI (SK-OV-3 ovarian)
20.7 µM: TGI (COLO 205 colon)
> 67.2 µM: TGI (MCF7 breast)
active: GI50 (A498 renal) 0.0342 µM | GI50 (CAKI-1 renal) 0.101 µM | GI50 (NCI-H226 lung) 0.041 µM | GI50 (NCI-H460 lung) 0.115 µM | GI50 (OVCAR-5 ovarian) 0.082 µM | GI50 (TK-10 renal) 0.162 µM
39.4 µM: TGI (IGROV1 ovarian)
0.659 µM: TGI (OVCAR-5 ovarian)
43.3 µM: TGI (MALME-3M melanoma)
73.2 µM: TGI (PC-3 prostate)
72.8 µM: TGI (HL-60(TB) leukemia)
> 56.3 µM: TGI (MDA-MB-231 breast)
50.3 µM: TGI (SF-539 CNS)
49.2 µM: TGI (BT-549 breast)
22.3 µM: TGI (SK-MEL-5 melanoma)
7.44 µM: TGI (UACC-257 melanoma)
66.1 µM: TGI (SK-MEL-2 melanoma)
72.5 µM: TGI (M14 melanoma)
1.52 µM: TGI (TK-10 renal)
49 µM: TGI (HOP-92 NSCLC)
61.7 µM: TGI (OVCAR-3 ovarian)
45.4 µM: TGI (UO-31 renal)
> 100 µM: TGI (A549 NSCLC) | TGI (ACHN renal) | TGI (CCRF-CEM leukemia) | TGI (DU-145 prostate) | TGI (EKVX NSCLC) | TGI (HCC-2998 colon) | TGI (HCT-15 colon) | TGI (HOP-62 NSCLC) | TGI (HS 578T breast) | TGI (HT29 colon) | TGI (K-562 leukemia) | TGI (KM12 colon) | TGI (MDA-MB-435) | TGI (NCI-H23 lung) | TGI (NCI-H522 lung) | TGI (NCI/ADR-RES ovarian) | TGI (OVCAR-4 ovarian) | TGI (OVCAR-8 ovarian) | TGI (RPMI-8226 leukemia) | TGI (SF-268 CNS) | TGI (SK-MEL-28 melanoma) | TGI (SN12C renal) | TGI (SNB-19 CNS) | TGI (SNB-75 CNS) | TGI (SW-620 colon) | TGI (U251 CNS)
3.42 µM: TGI (CAKI-1 renal)
> 79.4 µM: TGI (SR leukemia)
0.251 µM: TGI (NCI-H226 lung)
11.2 µM: TGI (NCI-H460 lung)
51.8 µM: TGI (RXF 393 renal)
0.172 µM: TGI (A498 renal)
> 95 µM: TGI (LOX IMVI melanoma)
inactive: GI50 (786-0 renal) 13.6 µM | GI50 (A549 NSCLC) 13.4 µM | GI50 (ACHN renal) 27.4 µM | GI50 (BT-549 breast) 11.4 µM | GI50 (CCRF-CEM leukemia) 19.7 µM | GI50 (COLO 205 colon) 2.17 µM | GI50 (DU-145 prostate) 22.3 µM | GI50 (EKVX NSCLC) 21 µM | GI50 (HCC-2998 colon) 14.3 µM | GI50 (HCT-116 colon) 4.83 µM | GI50 (HCT-15 colon) 15.5 µM | GI50 (HL-60(TB) leukemia) 22.5 µM | GI50 (HOP-62 NSCLC) 2.63 µM | GI50 (HOP-92 NSCLC) 4.43 µM | GI50 (HS 578T breast) 19.2 µM | GI50 (HT29 colon) 24.4 µM | GI50 (IGROV1 ovarian) 1.22 µM | GI50 (K-562 leukemia) 4.21 µM | GI50 (KM12 colon) 26.4 µM | GI50 (LOX IMVI melanoma) 12.1 µM | GI50 (M14 melanoma) 15.2 µM | GI50 (MALME-3M melanoma) 14.3 µM | GI50 (MCF7 breast) 4.12 µM | GI50 (MDA-MB-231 breast) 9.7 µM | GI50 (MDA-MB-435) 23 µM | GI50 (MOLT-4 leukemia) 17.9 µM | GI50 (NCI-H23 lung) 8.37 µM | GI50 (NCI-H522 lung) 73.2 µM | GI50 (NCI/ADR-RES ovarian) 13.9 µM | GI50 (OVCAR-3 ovarian) 6.64 µM | GI50 (OVCAR-4 ovarian) 4.39 µM | GI50 (OVCAR-8 ovarian) 23.5 µM | GI50 (PC-3 prostate) 12.8 µM | GI50 (RPMI-8226 leukemia) 7.14 µM | GI50 (RXF 393 renal) 4.59 µM | GI50 (SF-268 CNS) 21.4 µM | GI50 (SF-295 CNS) 0.992 µM | GI50 (SF-539 CNS) 16.6 µM | GI50 (SK-MEL-2 melanoma) 8.49 µM | GI50 (SK-MEL-28 melanoma) 33.6 µM | GI50 (SK-MEL-5 melanoma) 8.18 µM | GI50 (SK-OV-3 ovarian) 1.84 µM | GI50 (SN12C renal) 14.9 µM | GI50 (SNB-19 CNS) 19.4 µM | GI50 (SNB-75 CNS) 8.26 µM | GI50 (SR leukemia) 16.5 µM | GI50 (SW-620 colon) 13.2 µM | GI50 (T-47D breast) 1.84 µM | GI50 (U251 CNS) 13.3 µM | GI50 (UACC-257 melanoma) 2.05 µM | GI50 (UACC-62 melanoma) 1.32 µM | GI50 (UO-31 renal) 3.35 µM
64.5 µM: TGI (786-0 renal)
30 µM: TGI (HCT-116 colon)
